From patent publication US11214803B2, “Modulators of YAP1 expression” (Ionis Pharmaceuticals, Inc., priority 2019, dated 2022)
Strand notation (5' to 3'): a small letter for the sugar, then the base; units joined by * are phosphorothioate-linked, units joined directly phosphodiester-linked; [ ] holds rarer units or linkages, { } end groups; capitals alone tell only the bases. e = 2'-O-(2-methoxyethyl) (MOE); k = constrained ethyl (cEt); [5mC] = 5-methylcytosine; d = 2'-deoxy (DNA); m = 2'-O-methyl

System: Yap1 mRNA
Assay: Dose-dependent inhibition of human Yap1 in SNU-449 cells (Example 9, RTS36584)
Type: cell-based
Conditions: free uptake; for % UTC (Yap1 mRNA): approximately 48 hours; for IC50: linear regression on a log/linear plot
Method in brief: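 SNU-449 cells (10,000/well) took up modified oligonucleotides by free uptake at a range of doses for about 48 h. Yap1 mRNA was quantified with primer-probe set RTS36584, normalised to RIBOGREEN total RNA and expressed as % untreated control; IC50 from linear regression on log/linear plot.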

Substance | % UTC (Yap1 mRNA) (31.3 nM) [% UTC] | % UTC (Yap1 mRNA) (125.0 nM) [% UTC] | % UTC (Yap1 mRNA) (500.0 nM) [% UTC] | % UTC (Yap1 mRNA) (2000.00 nM) [% UTC] | IC50 [nM]
1198875 (kA*kA*dA*dG*dT*dG*dT*dA*dT*dG*dT*k[5mC]*eA*kG*eA*kA; antisense) [compound 1198875] | 61 | 23 | 4 | 1 | 40
1198814 (kA*kG*dA*dG*dT*dA*dT*dG*dT*dG*dG*k[5mC]*eA*kA*eT*kA) [compound 1198814] | 63 | 25 | 6 | 3 | 40
1197177 (kA*kT*kT*dG*dT*d[5mC]*dT*d[5mC]*dA*dT*dG*d[5mC]*d[5mC]*kT*kT*kA; antisense) [compound 1197177] | 56 | 29 | 8 | 2 | 30
1197236 (kT*kA*kT*dT*mA*dG*dA*dG*dT*dA*dT*dG*dT*kG*kG*k[5mC]; antisense) [compound 1197236] | 64 | 46 | 25 | 14 | 100
1197223 (kT*kA*kA*dG*dT*dA*dA*dG*dG*dT*dT*dT*d[5mC]*k[5mC]*k[5mC]*kA; antisense) [compound 1197223] | 88 | 55 | 25 | 8 | 200
1197213 (kT*kG*kT*dA*dT*dG*dT*d[5mC]*dA*dG*dA*dA*dG*kA*kG*kT; antisense) [compound 1197213] | 87 | 46 | 14 | 2 | 100
1198212 (kT*kA*dT*dT*dA*dG*dA*dG*dT*dA*dT*eG*eT*eG*kG*k[5mC]) [compound 1198212] | 74 | 35 | 10 | 2 | 100
1197215 (kA*kA*kG*dT*dG*dT*dA*dT*dG*dT*d[5mC]*dA*dG*kA*kA*kG) [compound 1197215] | 56 | 31 | 7 | 2 | 40
1198267 (kA*kG*dT*dG*dT*dA*dT*dG*dT*d[5mC]*dA*eG*eA*eA*kG*kA; antisense) [compound 1198267] | 78 | 44 | 15 | 3 | 100
1198746 (kG*e[5mC]*kA*d[5mC]*dT*dT*dT*dT*dA*d[5mC]*dA*dT*eT*eA*kG*kG) [compound 1198746] | 49 | 24 | 9 | 3 | < 30
1198554 (kT*kT*kA*dG*dA*dG*dT*dA*dT*dG*dT*dG*kG*k[5mC]*kA*eA; antisense) [compound 1198554] | 72 | 46 | 22 | 8 | 100
1198347 (kG*kT*kA*dA*dT*dA*dT*dT*dG*d[5mC]*dA*dA*kT*e[5mC]*kT*eG) [compound 1198347] | 67 | 54 | 24 | 8 | 100
1197214 (kA*kG*kT*dG*dT*dA*dT*dG*dT*d[5mC]*dA*dG*dA*kA*kG*kA; antisense) [compound 1197214] | 88 | 31 | 7 | 1 | 100
1198382 (kT*dT*dA*dG*dA*dG*dT*dA*dT*dG*dT*kG*eG*k[5mC]*eA*kA; antisense) [compound 1198382] | 77 | 56 | 36 | 18 | 200
1198356 (kT*kA*kA*dA*dG*dT*dG*dT*dA*dT*dG*dT*k[5mC]*eA*kG*eA; antisense) [compound 1198356] | 85 | 30 | 7 | 1 | 100
1200860 (kT*kA*kA*dA*dG*mU*dG*dT*dA*dT*dG*dT*d[5mC]*kA*kG*kA; antisense) [compound 1200860] | 59 | 35 | 15 | 5 | 50
1200797 (kA*kT*kT*dA*dG*mA*dG*dT*dA*dT*dG*dT*dG*kG*k[5mC]*kA; antisense) [compound 1200797] | 84 | 52 | 23 | 11 | 200
1198384 (kT*dA*dT*dT*dA*dG*dA*dG*dT*dA*dT*kG*eT*kG*eG*k[5mC]; antisense) [compound 1198384] | 76 | 50 | 24 | 17 | 100
1198877 (kT*kT*dA*dA*dA*dG*dT*dG*dT*dA*dT*kG*eT*k[5mC]*eA*kG; antisense) [compound 1198877] | 62 | 32 | 13 | 5 | 50
1200796 (kT*kT*kA*dG*dA*mG*dT*dA*dT*dG*dT*dG*dG*k[5mC]*kA*kA; antisense) [compound 1200796] | 69 | 47 | 25 | 12 | 100
1198911 (kG*kA*dG*dG*dT*dA*dT*dA*dA*d[5mC]*dT*kG*dG*kG*d[5mC]*kA; antisense) [compound 1198911] | 62 | 31 | 12 | 7 | 50
1198294 (kA*kG*kA*dG*dT*dA*dT*dG*dT*dG*dG*d[5mC]*kA*eA*kT*eA; antisense) [compound 1198294] | 59 | 33 | 14 | 5 | 50
1198397 (k[5mC]*dA*d[5mC]*dT*dT*dT*dT*dA*d[5mC]*dA*dT*kT*eA*kG*eG*kA; antisense) [compound 1198397] | 70 | 53 | 28 | 14 | 100
1198642 (kT*kA*dT*dT*dA*dG*dA*dG*dT*dA*dT*dG*kT*eG*kG*e[5mC]; antisense) [compound 1198642] | 79 | 48 | 15 | 4 | 100
1198857 (kT*k[5mC]*dT*dT*dA*dT*dA*dT*dG*dG*dT*kT*eT*kT*eG*kT) [compound 1198857] | 78 | 44 | 13 | 4 | 100
1197235 (kA*kT*kT*dA*mG*dA*dG*dT*dA*dT*dG*dT*dG*kG*k[5mC]*kA; antisense) [compound 1197235] | 64 | 36 | 16 | 5 | 100
